Each structure is given as a SMILES string.

Common to all, as to type: cell-based, mouse
The subject of experiment [1] is ATP release. Kind of experiment: Detection of extracellular ATP in CT26 cells. To be noted: CT26, irradiated at 740 nm. How it is done: We finally measured ATP release, another important event in ICD, using a bioluminescence detection kit (Figure 3E).
Scientific, Catalog no.15 5411) at a d ensity of 8,00 0 cells p er well and cultu red fo r 24 h at 37 °C with 5 % CO2. T he cells wer e then treated with a solution of the compounds at a concentration corresponding to the IC50 for 4 h. After refreshing the medium, cells were subjected to irradiation and incubated for an additional 12 h. Subsequently, the cells were fix ed with 4% paraformaldehyde and immunostained with Anti- Calreticulin antibody (Abcam, Catalog no. ab2907) diluted 1/1000 at 4 °C overnight. Cells were then washed three times with PBS, treated with Goat Anti- Rabbit IgG H&L (Alexa […]
temperature in the dark, washed in PBS and treat ed with 10 µg/mL Hoechst for 15 min.
After a final wash, cells were analyzed by confocal microscopy as det ailed above. […]
incubated for 24 h. Cells were then treat ed with the determined IC50 of complexes and irradiated or kept in the dark. Supernatants were collected 12 h post-t reatm ent, and the extracellular ATP content was measured with Adenosine 5′ -triphosphate (ATP) Bioluminescent Assay Kit (Sigma-Aldrich) according tomanufacturer ’s ins truction. […]
(§1) 556419) and PI (BD Biosciences, Catalog no.51- 66211E). CT26- luc cells were analyzed by flow cytometry (Beckm an Coulter Life Sciences, CytoFLEX LX Flow Cytometer). […]

Experiment [2] relates to CT26 cells. As to the kind of experiment: ICD in vitro, summary of the three hallmarks. How it is done: A weak ICD was present in cells treated with 6.12 µM Os2 in the dark (limited translocation of CRT) and Ce6‐treated cells under 770 nm light (partial release of HMGB‐1).
In experiment [3] the test system is MCA205 cells. Kind of experiment: Annexin V-FITC/propidium iodide (AV/PI) cell viability assay by flow cytometry. To be noted: MCA205, 740 nm LED light illumination.
From the text: Regarding the optimal dose of each drug for in vivo vaccination, we continued to follow the same standards as with CT26‐luc cells, using the concentration of each drug that results in approximately 5% of live cells as the in vivo dose. The testing method remained the same, using the AV/PI dual staining assay. Negative controls still included the untreated group (direct injection of PBS solution) and the non‐ICD inducer Cisplatin. Based on the in vitro HMGB‐1 release results, Ce6 was maintained as the positive control. For a more comprehensive comparison, we also added the platinum‐based chemotherapeutic agent Oxaliplatin as a non‐PS ICD inducer, serving as an additional positive control.
As the drug concentration increased, the cells gradually shifted to dying (Q3, Annexin V^+/PI^−) or dead (Q2, Annexin V^+/PI^+ and Q1, Annexin V^−/PI^+) state. For MCA205 cells, the concentrations corresponding to approximately 5% cell survival for each drug were 500 µM Cisplatin and 1400 µM Oxaliplatin in the dark, 5.5 µM Ce6 and 3 µM Os2 under 740 nm LED light illumination. […]
incubated for 24 h. Cells were then treat ed with the determined IC50 of complexes and irradiated or kept in the dark. Supernatants were collected 12 h post-t reatm ent, and the extracellular ATP content was measured with Adenosine 5′ -triphosphate (ATP) Bioluminescent Assay Kit (Sigma-Aldrich) according tomanufacturer ’s ins truction.
Cell viability assay f o r in vivo by flow cytometry
CT26-luc or MCA205 cells were seeded in 6-well plates at a density of 1 ×1 05 cells per well and cultured for 24 h at 37 °C with 5% CO 2. The medium was replaced by various concentrations of the compound dilutions in fresh medium.For Ce6 and Os2, after 4 h incubation in the dark, the medium w as r efr eshed and the plates wer e illuminated with a LUMOS-BIO photoreactor (Atlas Photonics), followed by an additional 20- h incubation in the dark. […]
as §1
For orientation: In flow cytometry, cells or beads pass a laser one at a time.

With `C=Cc1c(C)c2cc3nc(c(CC(=O)O)c4[nH]c(cc5nc(cc1[nH]2)C(C)=C5CC)c(C)c4C(=O)O)[C@@H](CCC(=O)O)[C@@H]3C` [Ce6, chlorin e6], the ATP release entry in experiment [1] is recorded as “significantly enhanced ATP release”. The “ICD (all three hallmarks)” value in experiment [2] (CT26, 770 nm light) is “weak ICD”; in experiment [2] (CT26, illumination at 740 nm), “strong ICD”. For the same compound, the “Concentration corresponding to approximately 5% cell survival” value in experiment [3] worked out at 5.5 µM.

For the origin of these results see article PMC13327620, “A Deep‐Red‐Absorbing Osmium(II) Complex as a Photosensitizer for Photodynamic Therapy Inducing Immunogenic Cell Death” (Angewandte Chemie (International Ed. in English), 2026).
